# Source: patent US20160130278A1 (TAISHO PHARMACEUTICAL CO., LTD, priority 2013, published 2016)
# Biological target: T1, human type 1 glycine transporter (GlyT1) (Homo sapiens, UniProt P48067)
# T1 construct: T98G cells (glioma cells) expressing human type 1 glycine transporter (GlyT1) were used
# T1 sequence (P48067 1-706): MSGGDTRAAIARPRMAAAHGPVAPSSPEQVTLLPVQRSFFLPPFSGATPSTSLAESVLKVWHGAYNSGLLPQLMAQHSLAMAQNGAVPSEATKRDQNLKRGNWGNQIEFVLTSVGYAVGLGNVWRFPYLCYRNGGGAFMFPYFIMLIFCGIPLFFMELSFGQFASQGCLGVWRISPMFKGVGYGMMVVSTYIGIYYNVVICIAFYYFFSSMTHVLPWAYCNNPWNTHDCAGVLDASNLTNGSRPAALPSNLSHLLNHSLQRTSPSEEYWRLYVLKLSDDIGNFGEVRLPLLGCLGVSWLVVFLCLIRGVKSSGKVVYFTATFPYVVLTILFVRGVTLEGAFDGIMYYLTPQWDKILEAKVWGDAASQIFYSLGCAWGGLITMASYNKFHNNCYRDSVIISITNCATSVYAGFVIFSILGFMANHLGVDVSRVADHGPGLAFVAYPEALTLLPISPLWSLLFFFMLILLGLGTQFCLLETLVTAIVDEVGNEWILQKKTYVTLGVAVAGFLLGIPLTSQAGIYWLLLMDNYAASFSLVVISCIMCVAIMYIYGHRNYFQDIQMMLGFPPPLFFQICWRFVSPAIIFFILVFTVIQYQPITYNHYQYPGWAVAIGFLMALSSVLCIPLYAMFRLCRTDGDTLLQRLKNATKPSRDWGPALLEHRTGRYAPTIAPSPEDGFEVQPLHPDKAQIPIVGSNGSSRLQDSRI
# Experiment: Glycine uptake inhibition experiment ([3H]glycine uptake)
# Format: cell-based
# Details: GlyT1
# Method in brief: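 T98G glioma cells expressing human GlyT1 were pretreated 10 min with compound in HEPES buffer pH 7.4 (0.2% BSA), then incubated with compound plus 250 nM final [3H]glycine for 15 min at room temperature. Intracellular radioactivity was counted after NaOH lysis; 10 μM ALX5407 defined non-specific uptake. IC50 came from 10^−9–10^−5 M curves.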
row,Compound,IC50 [nM]
1,"O=C(NC(c1cccc(Cl)c1)C1(O)CCC(O)C1)c1nccc(C(F)(F)F)c1Cl (stereo not shown) [Compound 128, 3-chloro-N-[(3-chlorophenyl)(1,3-dihydroxycyclopentyl)methyl]-4-(trifluoromethyl)pyridine-2-carboxamide]",1100
2,"O=C1CCC(O)(C(NC(=O)c2nccc(C(F)(F)F)c2Cl)c2cccc(Cl)c2)C1 (stereo not shown) [Compound 130, 3-chloro-N-[(3-chlorophenyl)(1-hydroxy-3-oxocyclopentyl)methyl]-4-(trifluoromethyl)pyridine-2-carboxamide]",1100
3,"O=C(NC(c1cccc(Cl)c1Cl)C1(O)CCC(F)(F)CC1)c1nccc(C(F)(F)F)c1Cl (stereo not shown) [Compound 131, 3-chloro-N-[(2,3-dichlorophenyl)(4,4-difluoro-1-hydroxycyclohexyl)methyl]-4-(trifluoromethyl)pyridine-2-carboxamide]",160
4,"O=C(NC(c1cccc(Br)c1)C1(O)CC=CCC1)c1nccc(C(F)(F)F)c1Cl (stereo not shown) [Compound 142, N-[(3-bromophenyl)(1-hydroxycyclohex-3-en-1-yl)methyl]-3-chloro-4-(trifluoromethyl)pyridine-2-carboxamide]",410
5,"O=C(NC(c1cccc(-c2ccccn2)c1)C1(O)CCC(F)(F)CC1)c1nccc(C(F)(F)F)c1Cl (stereo not shown) [Compound 143, 3-chloro-N-{(4,4-difluoro-1-hydroxycyclohexyl)[3-(pyridin-2-yl)phenyl]methyl}-4-(trifluoromethyl)pyridine-2-carboxamide]",210
6,"O=C(NC(c1cc(Cl)ccc1Cl)C1(O)CCC(F)(F)CC1)c1nccc(C(F)(F)F)c1Cl (stereo not shown) [Compound 148, 3-chloro-N-[(2,5-dichlorophenyl)(4,4-difluoro-1-hydroxycyclohexyl)methyl]-4-(trifluoromethyl)pyridine-2-carboxamide]",260
7,"O=C(NC(c1cccc(Cl)c1)[C@]1(O)CC[C@@H](F)CC1)c1nccc(C(F)(F)F)c1Cl (stereo partly drawn) [Compound 153, 3-chloro-N-[(3-chlorophenyl)(cis-4-fluoro-1-hydroxycyclohexyl)methyl]-4-(trifluoromethyl)pyridine-2-carboxamide]",98
8,"O=C(NC(c1ccccc1)[C@]1(O)CC[C@@H](F)CC1)c1nccc(C(F)(F)F)c1Cl (stereo partly drawn) [Compound 158, 3-chloro-N-[(cis-4-fluoro-1-hydroxycyclohexyl)(phenyl)methyl]-4-(trifluoromethyl)pyridine-2-carboxamide]",350
9,"O=C(NC(c1cccc(-c2cnccn2)c1)C1(O)CCC(F)(F)CC1)c1nccc(C(F)(F)F)c1Cl (stereo not shown) [Compound 159, 3-chloro-N-{(4,4-difluoro-1-hydroxycyclohexyl)[3-(pyrazin-2-yl)phenyl]methyl}-4-(trifluoromethyl)pyridine-2-carboxamide]",320
10,"O=C(NC(c1cccc(-c2ncccn2)c1)C1(O)CCC(F)(F)CC1)c1nccc(C(F)(F)F)c1Cl (stereo not shown) [Compound 160, 3-chloro-N-{(4,4-difluoro-1-hydroxycyclohexyl)[3-(pyrimidin-2-yl)phenyl]methyl}-4-(trifluoromethyl)pyridine-2-carboxamide]",880
11,"O=C(N[C@H](c1cccc(Cl)c1)[C@]1(O)CC[C@@H](F)CC1)c1nccc(C(F)(F)F)c1Cl [Compound 161, 3-chloro-N-[(R)-(3-chlorophenyl)(cis-4-fluoro-1-hydroxycyclohexyl)methyl]-4-(trifluoromethyl)pyridine-2-carboxamide]",6700
12,"O=C(N[C@@H](c1cccc(Cl)c1)[C@]1(O)CC[C@@H](F)CC1)c1nccc(C(F)(F)F)c1Cl [Compound 162, 3-chloro-N-[(S)-(3-chlorophenyl)(cis-4-fluoro-1-hydroxycyclohexyl)methyl]-4-(trifluoromethyl)pyridine-2-carboxamide]",65
13,"O=C(NC(c1cccc(Cl)c1)[C@]1(O)CC[C@@H](F)CC1)c1ccnc(C(F)(F)F)c1Cl (stereo partly drawn) [Compound 163, 3-chloro-N-[(3-chlorophenyl)(cis-4-fluoro-1-hydoxycyclohexyl)methyl]-2-(trifluoromethyl)pyridine-4-carboxamide]",390
14,"O=C(NC(c1ccc(F)c(F)c1F)C1(O)CCC(F)(F)CC1)c1nccc(C(F)(F)F)c1Cl (stereo not shown) [Compound 170, 3-chloro-N-[(4,4-difluoro-1-hydroxycyclohexyl)(2,3,4-trifluorophenyl)methyl]-4-(trifluoromethyl)pyridine-2-carboxamide]",630
15,"O=C(NC(c1ccc(F)c(F)c1F)C1(O)CCC(F)(F)CC1)c1ccnc(C(F)(F)F)c1Cl (stereo not shown) [Compound 171, 3-chloro-N-[(4,4-difluoro-1-hydroxycyclohexyl)(2,3,4-trifluorophenyl)methyl]-2-(trifluoromethyl)pyridine-4-carboxamide]",1100

# The remaining lines, values ahead:
row,IC50 [nM],Compound
1,350,"CCn1cc(-c2cccc(C(NC(=O)c3cccc(C(F)(F)F)c3C)C3(O)CCC(F)(F)CC3)c2)cn1 (stereo not shown) [Compound 125, N-{(4,4-difluoro-1-hydroxycyclohexyl)[3-(1-ethyl-1H-pyrazol-4-yl)phenyl]methyl}-2-methyl-3-(trifluoromethyl)benzamide]"
2,720,"CCn1cc(-c2cccc(C(NC(=O)c3cccc(C)c3Cl)C3(O)CCC(F)(F)CC3)c2)cn1 (stereo not shown) [Compound 126, 2-chloro-N-{(4,4-difluoro-1-hydroxycyclohexyl)[3-(1-ethyl-1H-pyrazol-4-yl)phenyl]methyl}-3-methylbenzamide]"
3,660,"CCn1cc(-c2cccc(C(NC(=O)c3cc(Cl)ccc3Cl)C3(O)CCC(F)(F)CC3)c2)cn1 (stereo not shown) [Compound 127, 2,5-dichloro-N-{(4,4-difluoro-1-hydroxycyclohexyl)[3-(1-ethyl-1H-pyrazol-4-yl)phenyl]methyl}benzamide]"
4,99,"CC(C)n1cc(-c2cccc(C(NC(=O)c3nccc(C(F)(F)F)c3Cl)C3(O)CCC(F)(F)CC3)c2)cn1 (stereo not shown) [Compound 129, 3-chloro-N-[(4,4-difluoro-1-hydroxycyclohexyl){3-[1-(propan-2-yl)-1H-pyrazol-4-yl]phenyl}methyl]-4-(trifluoromethyl)pyridine-2-carboxamide]"
5,130,"O=C(NC(c1cccc(-c2cnn(CC(F)(F)F)c2)c1)C1(O)CCC(F)(F)CC1)c1nccc(C(F)(F)F)c1Cl (stereo not shown) [Compound 132, 3-chloro-N-[(4,4-difluoro-1-hydroxycyclohexyl){3-[1-(2,2,2-trifluoroethyl)-1H-pyrazol-4-yl]phenyl}methyl]-4-(trifluoromethyl)pyridine-2-carboxamide]"
6,840,"CCn1cc(-c2cccc(C(NC(=O)c3cccc4ccccc34)C3(O)CCC(F)(F)CC3)c2)cn1 (stereo not shown) [Compound 138, N-{(4,4-difluoro-1-hydroxycyclohexyl)[3-(1-ethyl-1H-pyrazol-4-yl)phenyl]methyl}naphthalene-1-carboxamide]"
7,430,"CCn1cc(-c2cccc(C(NC(=O)c3nccc4ccccc34)C3(O)CCC(F)(F)CC3)c2)cn1 (stereo not shown) [Compound 139, N-{(4,4-difluoro-1-hydroxycyclohexyl)[3-(1-ethyl-1H-pyrazol-4-yl)phenyl]methyl}isoquinoline-1-carboxamide]"
8,3300,"CCn1cc(-c2cccc(C(NC(=O)c3ccc(C(F)(F)F)nc3C)C3(O)CCC(F)(F)CC3)c2)cn1 (stereo not shown) [Compound 140, N-{(4,4-difluoro-1-hydroxycyclohexyl)[3-(1-ethyl-1H-pyrazol-4-yl)phenyl]methyl}-2-methyl-6-(trifluoromethyl)pyridine-3-carboxamide]"
9,3100,"CCn1cc(-c2cccc(C(NC(=O)c3nccnc3Cl)C3(O)CCC(F)(F)CC3)c2)cn1 (stereo not shown) [Compound 141, 3-chloro-N-{(4,4-difluoro-1-hydroxycyclohexyl)[3-(1-ethyl-1H-pyrazol-4-yl)phenyl]methyl}pyradine-2-carboxamide]"
10,140,"O=C(NC(c1cccc(-c2cccnc2)c1)C1(O)CCC(F)(F)CC1)c1nccc(C(F)(F)F)c1Cl (stereo not shown) [Compound 146, 3-chloro-N-{(4,4-difluoro-1-hydroxycyclohexyl)[3-(pyridin-3-yl)phenyl]methyl}-4-(trifluoromethyl)pyridine-2-carboxamide]"
11,160,"CCn1cc(-c2cccc(C(NC(=O)c3ccnc(C(F)(F)F)c3Cl)C3(O)CCC(F)(F)CC3)c2)cn1 (stereo not shown) [Compound 157, 3-chloro-N-[(4,4-difluoro-1-hydroxycyclohexyl)[3-(1-ethyl-1H-pyrazol-4-yl)phenyl]methyl]-2-(trifluoromethyl)pyridine-4-carboxamide]"
12,5000,"CCn1cc(-c2cccc(C(NC(=O)c3ccnc(C(F)(F)F)c3)C3(O)CCC(F)(F)CC3)c2)cn1 (stereo not shown) [Compound 172, N-{(4,4-difluoro-1-hydroxycyclohexyl)[3-(1-ethyl-1H-pyrazol-4-yl)phenyl]methyl}-2-(trifluoromethyl)pyridine-4-carboxamide]"
13,1000,"CCn1cc(-c2cccc(C(NC(=O)c3ccnc(Cl)c3Cl)C3(O)CCC(F)(F)CC3)c2)cn1 (stereo not shown) [Compound 173, 2,3-dichloro-N-{(4,4-difluoro-1-hydroxycyclohexyl)[3-(1-ethyl-1H-pyrazol-4-yl)phenyl]methyl}pyridine-4-carboxamide]"
